Laboratory results reported in US6831078B1, “Azetidinecarboxamide derivatives for treating CNS disorders” (Vernalis Research Limited, priority 1998, dated 2004).
Structures can show the parent of a compound that is named as a salt. Marks after values point to notes of the source that are not given here.

system: not given; assay: not given; conditions: not given

Row | SMILES | melting point
1 | C[C@H](NC(=O)N1CC(c2ccc(Cl)cc2)C1)[C@H](O)c1ccccc1 [Example 42] | 120 to 122 °C
2 | C[C@@H](O)CNC(=O)N1CC(c2ccc(F)cc2F)C1 [Example 36] | 88 to 89 °C
3 | CC(=O)CNC(=O)N1CC(c2ccc(C(F)(F)F)cc2)C1 [Example 80] | 139.5 to 141 °C
4 | NCC1CCN(C(=O)N2CC(c3ccc(Cl)cc3)C2)CC1 [Example 44] | 137 to 138 °C
5 | COCC(C)NC(=O)N1CC(c2ccc(Cl)cc2)C1 (stereo not shown) [Example 38] | 110 °C
6 | C[C@@H](O)CNC(=O)N1CC(c2ccc(C(F)(F)F)cc2F)C1 [Example 58] | 106 to 107 °C
7 | CC[C@@H](O)CNC(=O)N1CC(c2ccc(F)cc2)C1 (hydrate or solvate) [Example 75] | 77 to 79 °C
8 | C#CCNC(=O)N1CC(c2ccc(F)c(Cl)c2)C1 [Example 26] | 133 °C
9 | C[C@H](O)CNC(=O)N1CC(c2cc(Cl)cc(Cl)c2)C1 [Example 49] | 110 to 111 °C
10 | C=CCNC(=O)N1CC(c2ccc(C(F)(F)F)cc2)C1 [Example 46] | 136 to 137.5 °C
11 | C#CCNC(=O)N1CC(c2ccc(C(C)(C)C)cc2)C1 [Example 3, 3-(4-tert-Butylphenyl)-N-(2-propynyl)azetidine-1-carboxamide] | 141 °C
12 | C[C@@H](CO)NC(=O)N1CC(c2ccc(F)cc2)C1 [Example 77] | 118 to 120 °C
13 | C[C@@H](O)CNC(=O)N1CC(c2cccc(Cl)c2Cl)C1 [Example 35] | 111 °C
14 | CCCNC(=O)N1CC(c2ccc(F)cc2)C1 [Example 45] | 117 to 118.5 °C
15 | C#CCNC(=O)N1CC(c2cccc(Cl)c2)C1 [Example 59] | 90 to 105 °C (dec.)
16 | CCC(C)NC(=O)N1CC(c2ccc(F)cc2)C1 (stereo not shown) [Example 74] | 100 to 102 °C
17 | C=CCNC(=O)N1CC(c2cccc(Cl)c2)C1 [Example 53] | 65 to 66 °C
18 | C=CCNC(=O)N1CC(c2cccc(F)c2)C1 [Example 54] | 62.5 to 63.5 °C
19 | C[C@@H](O)CNC(=O)N1CC(c2cccc(F)c2)C1 [Example 83] | 77.5 to 79 °C

Row | SMILES | melting point
20 | NC(=O)N1CC(c2ccc(F)cc2)C1 [Example 67] | 205 to 208.5 °C
21 | CC(C)(N)CNC(=O)N1CC(c2ccc(Cl)cc2)C1 (as salt: HCl) [Example 79] | 183 to 184 °C
22 | CC(C)(O)CNC(=O)N1CC(c2ccc(F)cc2)C1 [Example 55] | 77 to 78.5 °C
23 | C[C@H](O)CNC(=O)N1CC(c2cccc(F)c2)C1 [Example 48] | 79.5 to 80 °C
24 | C#CCNC(=O)N1CC(c2ccc(F)c(F)c2)C1 [Example 25] | 123 °C
25 | C[C@@H](O)CNC(=O)N1CC(c2ccc(F)c(F)c2)C1 [Example 21] | 108 to 109 °C
26 | C[C@@H](O)CNC(=O)N1CC(c2cc(F)cc(Cl)c2)C1 [Example 70] | 81 to 82.5 °C
27 | C#CCNC(=O)N1CC(c2ccc(Cl)c(F)c2)C1 [Example 31] | 132 °C
28 | C#CCNC(=O)N1CC(c2ccccc2C(F)(F)F)C1 [Example 33] | 101 °C
29 | C[C@@H](O)CNC(=O)N1CC(c2ccc(F)cc2)C1 [Example 7, (R)-3-(4-Fluorophenyl)-N-(2-hydroxypropyl)azetidine-1-carboxamide] | 104 to 105 °C
30 | CC(O)CNC(=O)N1CC(c2ccc(Cl)cc2)C1 (stereo not shown) [Example 71] | 92.5 to 94 °C
31 | CC(C)(O)CNC(=O)N1CC(c2cc(F)cc(Cl)c2)C1 [Example 68] | 112.5 to 113.5 °C
32 | CC(C)(CO)NC(=O)N1CC(c2ccc(Cl)cc2)C1 [Example 41] | 134 to 135 °C
33 | NC(=O)N1CC(c2cc(F)cc(Cl)c2)C1 [Example 69] | 198 to 200.5 °C
34 | C[C@@H](O)CNC(=O)N1CC(c2ccccc2C(F)(F)F)C1 [Example 32] | 89 °C
35 | C#CCNC(=O)N1CC(c2cccc(F)c2)C1 [Example 72] | 101.5 to 110.25 °C
36 | CC(C)(O)CNC(=O)N1CC(c2cccc(Cl)c2)C1 [Example 29] | 102 °C
37 | O=C(NCCc1ccccn1)N1CC(c2ccc(Cl)cc2)C1 [Example 43] | 125 °C
38 | O=C(NC[C@H](O)CO)N1CC(c2ccc(Cl)cc2)C1 [Example 78] | 90 to 92 °C

Row | SMILES | melting point
39 | C[C@H](CO)NC(=O)N1CC(c2ccc(Cl)cc2)C1 [Example 39] | 71 to 75 °C
40 | C[C@@H](O)CNC(=O)N1CC(c2ccc(F)c(Cl)c2)C1 [Example 23] | 83 to 84 °C
41 | O=C(NCCO)N1CC(c2ccc(F)cc2)C1 [Example 57] | 99 to 101 °C
42 | C[C@@H](O)CNC(=O)N1CC(c2ccc3ccccc3c2)C1 [Example 63] | 143 to 144 °C
43 | C[C@@H](O)CNC(=O)N1CC(c2ccccc2Cl)C1 [Example 34] | 109 °C
44 | C[C@H](CO)NC(=O)N1CC(c2ccc(Cl)cc2)C1 [Example 40] | 82 to 85 °C
45 | NC(=O)N1CC(c2cccc(C(F)(F)F)c2)C1 [Example 37] | 198 °C
46 | C#CCNC(=O)N1CC(c2ccc(F)c(C(F)(F)F)c2)C1 [Example 28] | 119 °C
47 | C[C@@H](O)CNC(=O)N1CC(c2ccc(F)c(C(F)(F)F)c2)C1 [Example 27] | 69 to 71 °C
48 | C#CCNC(=O)N1CC(c2cc(F)cc(Cl)c2)C1 [Example 61] | 108.5 to 110 °C
49 | O=C(N[C@@H]1CCCC[C@H]1O)N1CC(c2ccc(F)cc2)C1 [Example 76] | 141 to 142.5 °C
50 | CC(C)(O)CNC(=O)N1CC(c2ccc(C(F)(F)F)cc2)C1 [Example 84] | 123 to 124 °C
51 | CC(C)(O)CNC(=O)N1CC(c2ccc(Cl)cc2)C1 [Example 66] | 114 to 115.5 °C
52 | CC(C)(O)CNC(=O)N1CC(c2ccc(F)c(C(F)(F)F)c2)C1 [Example 64] | 110 to 111.5 °C
53 | CCCNC(=O)N1CC(c2ccc(C(F)(F)F)cc2)C1 [Example 47] | 127 to 128.5 °C
54 | O=C(NCCCO)N1CC(c2ccc(F)cc2)C1 [Example 65] | 90 to 93 °C
55 | CC(C)(O)CNC(=O)N1CC(c2cccc(C(F)(F)F)c2)C1 [Example 56] | 94.5 to 96 °C
56 | C[C@H](O)CNC(=O)N1CC(c2cccc(Cl)c2)C1 [Example 51] | 78 to 80 °C
57 | C=CCNC(=O)N1CC(c2cccc(C(F)(F)F)c2)C1 [Example 52] | 64 to 66 °C

system: 3-MPA-Induced Seizures; assay: Antagonism of 3-MPA-induced seizures; format: in vivo; conditions: mg/kg i.v. of 3-MPA required to evoke a seizure response; test drug 30 mg/kg p.o. 60 min before 3-MPA; male T/O mice
Procedure: Several animal seizure models are available for the screening and characterisation of anticonvulsant (antiepileptic) drugs, Most models employ a chemical convulsant to induce seizures and the anticonvulsant potencies of novel compounds are measured in terms of their ability to increase the dose of convulsant required to induce a seizure response (or to prolong the latency to seizure onset following a bolus dose of the convulsant). Most chemical convulsants work by blocking the neurotran […] function of gamma-aminobutyric acid (GABA), the predominant inhibitory neurotransmitter in the mammalian brain. This can be achieved by blocking the postsynaptic action of GABA using pentylenetetrazol or bicuculline, or via a presynaptic action using a GABA synthesis inhibitor to decrease GABA release into the synapse. […] Male albino […] (obtained from Tuck) weighing 28-40 g were used in these studies. […] Immediately following 3-MPA administration, each mouse was placed individually into a cage for observation. The seizure response of each animal was scored quantally as present or absent (response or non-response) during the 5 min period immediately following 3-MPA administration. A seizure response was defined as the onset of the initial clonic phase of the seizure (abrupt loss of righting reflex accompanied by vocalisation). The seizure threshold (in terms of mg/kg i.v. of 3-MPA required to evoke a seizure response) was determined in each treatment group by a sequential up/down method followed by modified probit analysis of the quantal data. […] In these studies, 3-MPA was obtained from Sigma. […] Drugs were administered in a dose volume of 10 ml/kg body weight.

Row | SMILES | SC = Seizure threshold after treatment with test drug
58 | C[C@@H](O)CNC(=O)N1CC(c2ccc(Cl)cc2)C1 [Example 9, (R)-3-(4-Chlorophenyl)-N-(2-hydroxypropyl)azetidine-1-carboxiamide] | 29.7 mg/kg
59 | C#CCNC(=O)N1CC(c2ccc(Cl)cc2)C1 [Example 8, (3-(4-Chlorophenyl)-N-2-propynyl)azetidine-1-carboxamide] | 100 mg/kg
60 | C[C@H](O)CNC(=O)N1CC(c2ccc(C(F)(F)F)cc2)C1 [Example 15] | 58.4 mg/kg
61 | C[C@@H](O)CNC(=O)N1CC(c2ccc(C(C)(C)C)cc2)C1 [Example 4, (R)-3-(4-tert-Butylphenyl)-N-(2-hydroxypropyl)azetidine-1-carboxamide] | 27.3 mg/kg
62 | C#CCNC(=O)N1CC(c2cccc(C(F)(F)F)c2)C1 [Example 19, 3-(3-(Trifluoromethyl)phenyl)-N-(2-propynyl)azetidine-1-carboxamide] | >200.0^a mg/kg
63 | C#CCNC(=O)N1CC(c2ccc(C(C)(C)C)cc2)C1 [Example 3, 3-(4-tert-Butylphenyl)-N-(2-propynyl)azetidine-1-carboxamide] | 21.4 mg/kg
64 | C#CCNC(=O)N1CC(c2ccc(F)cc2)C1 [Example 6, 3-(4-Fluorophenyl)-N-(2-propynyl)azetddine-1-carboxamide] | 59.5 mg/kg
65 | C[C@@H](O)CNC(=O)N1CC(c2ccc(F)cc2)C1 [Example 7, (R)-3-(4-Fluorophenyl)-N-(2-hydroxypropyl)azetidine-1-carboxamide] | 54.4 mg/kg
66 | C=CCNC(=O)N1CC(c2ccc(C(C)(C)C)cc2)C1 [Example 2, 3-(4-tert-Butylphenyl)-N-(2-propenyl)azeddine-1-carboxamide] | 24.2 mg/kg
67 | C=CCNC(=O)N1CC(c2ccc(F)cc2)C1 [Example 5, 3-(4-Fluoropbenyl)-N-(2-propenyl)azetidine-1-carboxamide] | 32.4 mg/kg
68 | C=CCNC(=O)N1CC(c2ccc(Cl)cc2)C1 [Example 1] | 42.7 mg/kg
69 | C[C@H](O)CNC(=O)N1CC(c2ccc(F)cc2)C1 [Example 10] | 95.8 mg/kg

system: elevated zero-maze model of anxiety; assay: not given; conditions: dose of 100 mg/Kg; orally by gavage 1 hour prior to zero-maze testing

Row | SMILES | anxiolytic activity (increase in the frequency of head dips)
70 | C#CCNC(=O)N1CC(c2ccc(F)cc2)C1 [Example 6, 3-(4-Fluorophenyl)-N-(2-propynyl)azetddine-1-carboxamide] | effective
